Results reported in patent US20150025120A1, “PYRAZOLE-ALCOHOL COMPOUNDS AND PHARMACEUTICAL USE THEREOF” (JAPAN TOBACCO INC., priority 2013, published 2015).

Tests used:
[1] = biological target: T1, hERG current (hERG-transfected HEK293 cells) (Homo sapiens, UniProt Q12809); test: hERG whole cell patch clamp test; format: cell-based
T1 construct: host or cells: HEK293
Procedure: Using human ether-a-go-go related gene (hERG)-transfected HEK293 cells (Cytomyx Limited), an influence on hERG current was examined according to the whole cell patch clamp technique. The hERG-transfected HEK293 cells were passaged using a CO2 incubator (BNA-111, TABAI ESPEC CORP.) under the set conditions of 37° C., 5% CO2, saturated humidity. Culture containers used were Collagen Type I Coated 75 cm^2 flask (4123-010, AGC TECHNO GLASS CO., Ltd.) and Collagen Type I Coated 35 mm culture dish (4000-010, AGC TECHNO GLASS CO., Ltd.). The culture medium used was E-MEM (Eagle Minimum Essential Medium (Earle's Salts, Nikken biomedical laboratory) added with 10% FCS (Fetal calf serum, BioWest, L.L.C.) and 1% MEM Non-Essential Amino Acids Solution (NEAA, Invitrogen Corporation). Geneticin for the selection of hERG gene expressing cells was added thereto to a concentration of 400 μg/mL. As the cells for the measurement, 3×10^4 hERG-transfected HEK293 cells were plated on a 35 mm culture dish 4 to 7 days before measurement of the hERG current. The culture dish produced for the measurement contained the above-mentioned culture medium without geneticin (Invitrogen Corporation).
The highest evaluation concentration of each compound was determined from the highest concentration at which precipitation was not found in the standard extracellular fluid (NaCl: 140 mmol/L, KCl: 2.5 mmol/L, MgCl2: 2 mmol/L, CaCl2: 2 mmol/L, HEPES: 10 mmol/L, glucose: 10 mmol/L (adjusted to pH 7.4 with Tris-base)). As the application method, each solution to be applied was ejected from a Y-tube having a tip diameter of about 0.25 mm, which was adjacent (about 2 mm) to the cells, and applied to the cells. The ejection rate was about 0.4 mL/min.
The experiment was performed at room temperature under a phase contrast microscope. The 35 mm culture dish plated with the cells was set on a measurement apparatus, and the standard extracellular fluid was continuously applied to the cells from the Y-tube. A glass electrode for the measurement was filled with an intracellular fluid (Potassium Gluconate: 130 mmol/L, KCl: 20 mmol/L, MgCl2: 1 mmol/L, ATP-Mg: 5 mmol/L, EGTA: 3.5 mmol/L, HEPES: 10 mmol/L (adjusted to pH 7.2 with Tris-base)). A conventional whole cell patch clamp method was applied to the cells, and the maintenance electric potential was set to −80 mV. Under a fixed electric potential, the whole cell current was amplified by an amplifier for patch clamp (AXOPATCH-200B, Axon Instruments, Inc.), and the data was loaded into a computer (IMC-P642400, Intermedical Co., Ltd.) using a data acquisition analysis software (pCLAMP 9.2, Axon Instruments, Inc.).
The measurement of the hERG current was performed in the following two steps. In both cases, the hERG current was initiated by giving a command potential (maintenance electric potential −80 mV, prepulse+20 mV, 1.5 sec, test-pulse −50 mV, 1.5 sec).
Step (1): The above-mentioned command potential was given at 0.1 Hz for 2 min.
Step (2): The above-mentioned command potential was subjected to P/3 subtraction of pCLAMP 9.2 to remove leak current. This was repeated three times and an average thereof was taken as hERG current.
Subsequent to step (1), Step (2) was performed (about 3 min), and the maximum tail current obtained by applying a test-pulse to the hERG current obtained by the method of step (2) was taken as hERG current value. Hereafter, the operations of (1) and (2) were alternately repeated until completion of the experiment and the hERG current value was measured.
Stable hERG current value was recorded three times (about 10 min), and the standard extracellular fluid was instantaneously exchanged with each application fluid. The hERG current value was measured three times (about 10 min) in the same manner during perfusion of the application fluid, and the current value obtained by the 3rd measurement was taken as hERG current value after perfusion of the application fluid. […]

tissue PDH activity = test: Ex vivo PDH activation assay (liver and epididymal adipose tissue after oral administration); format: in vivo, Sprague-Dawley rats; settings: 3 mg/kg, rat, mean ± standard deviation
Procedure: The action of test compound on tissue PDH activity was evaluated. NADH production was detected via p-iodonitrotetrazolium violet (INT)-coupled system to measure PDH activity.
Normal male Sprague-Dawley rats were randomly allocated to the vehicle group and the test compound groups. The vehicle (0.5% aqueous methylcellulose solution, 5 mL/kg) or the test compound was orally administered to the rats. At 5 or 20 hr after administration, the rats were anesthetized with an intraperitoneal injection of sodium pentobarbital (60 mg/kg), and liver slices and epididymal adipose tissues were collected.
(§1) To the liver slices were rapidly added 9 volumes of ice-cold homogenization buffer (0.25 mol/L sucrose, 5 mmol/L tris(hydroxymethyl)aminomethane hydrochloride (pH 7.5), 2 mmol/L EDTA), and the mixtures were homogenized using a Polytron homogenizer. The homogenates were centrifuged at 600×g, 4° C. for 10 min to obtain the supernatant. The supernatants (1 mL) were centrifuged at 16,000×g, 4° C. for 10 min to collect the precipitates. The precipitates were washed by resuspension in the homogenization buffer (1 mL) and centrifuged in the same manner. The precipitates were frozen with liquid nitrogen and stored at −80° C. as the liver mitochondrial fraction.
as §1, with “adipose tissues” for “liver slices”, “3” for “9”, “of an” for “of”, “buffer,” for “buffer (0.25 mol/L sucrose, 5 mmol/L tris(hydroxymethyl)aminomethane hydrochloride (pH 7.5), 2 mmol/L EDTA),”, “supernatants” for “supernatants (1 mL)”, “adipose tissue” for “liver”
The mitochondrial fractions were thawed and suspended with the sample buffer (0.25 mol/L sucrose, 20 mmol/L tris(hydroxymethyl)aminomethane hydrochloride (pH 7.5), 50 mmol/L potassium chloride, and 1 mL/L 4-(1,1,3,3-tetramethylbutyl)phenyl-polyethylene glycol (Triton X-100)). Active PDH activity (PDHa activity) and total PDH activity (PDHt activity) were measured to evaluate the PDH activity. For the measurement of the PDHt activity, equal amounts of the mitochondrial suspension and the activation buffer (0.25 mol/L sucrose, 20 mmol/L tris(hydroxymethyl)aminomethane hydrochloride (pH 7.5), 50 mmol/L potassium chloride, 1 mL/L Triton X-100, 4 mmol/L calcium chloride, 40 mmol/L magnesium chloride, 10 mmol/L sodium dichloroacetate) were mixed, and the mixtures were incubated at 37° C. for 10 min. Forty microliters of the mitochondrial suspensions diluted with a sample buffer were added to a 96-well microplate for activity measurement and blank measurement. Then 180 μL of the reaction mixture (0.056 mmol/L potassium phosphate buffer (pH 7.5), 5.6 mmol/L DL-carnitine, 2.8 mmol/L NAD, 0.22 mmol/L thiamin pyrophosphate, 0.11 mmol/L Coenzyme A, 1.1 mL/L Triton X-100, 1.1 mmol/L magnesium chloride, 1.1 g/L bovine serum albumin, 0.67 mmol/L INT, 7.2 μmol/L phenazine methosulfate, 28 mmol/L sodium oxamate) was added to each well, and then 20 μL of 50 mmol/L sodium pyruvate for activity measurement or water for blank measurement were added. The mixtures were incubated at room temperature under shading. The absorbances at 500-750 nm, which were attributable to reduction of INT, the final electron acceptor, were measured using a microplate reader over time and the changes in the absorbance were calculated. The PDH activity was calculated by subtraction of the change in absorbance of the blank well from that of the activity measurement well. The percentage of the PDHa activity to the PDHt activity was calculated and taken as an index of the PDH activation.

[2] = adipose tissue, 5 hr after oral administration
[3] = adipose tissue, 20 hr after oral administration
[4] = liver, 5 hr after oral administration
[5] = liver, 20 hr after oral administration

T1 sequence (Q12809 whole entry): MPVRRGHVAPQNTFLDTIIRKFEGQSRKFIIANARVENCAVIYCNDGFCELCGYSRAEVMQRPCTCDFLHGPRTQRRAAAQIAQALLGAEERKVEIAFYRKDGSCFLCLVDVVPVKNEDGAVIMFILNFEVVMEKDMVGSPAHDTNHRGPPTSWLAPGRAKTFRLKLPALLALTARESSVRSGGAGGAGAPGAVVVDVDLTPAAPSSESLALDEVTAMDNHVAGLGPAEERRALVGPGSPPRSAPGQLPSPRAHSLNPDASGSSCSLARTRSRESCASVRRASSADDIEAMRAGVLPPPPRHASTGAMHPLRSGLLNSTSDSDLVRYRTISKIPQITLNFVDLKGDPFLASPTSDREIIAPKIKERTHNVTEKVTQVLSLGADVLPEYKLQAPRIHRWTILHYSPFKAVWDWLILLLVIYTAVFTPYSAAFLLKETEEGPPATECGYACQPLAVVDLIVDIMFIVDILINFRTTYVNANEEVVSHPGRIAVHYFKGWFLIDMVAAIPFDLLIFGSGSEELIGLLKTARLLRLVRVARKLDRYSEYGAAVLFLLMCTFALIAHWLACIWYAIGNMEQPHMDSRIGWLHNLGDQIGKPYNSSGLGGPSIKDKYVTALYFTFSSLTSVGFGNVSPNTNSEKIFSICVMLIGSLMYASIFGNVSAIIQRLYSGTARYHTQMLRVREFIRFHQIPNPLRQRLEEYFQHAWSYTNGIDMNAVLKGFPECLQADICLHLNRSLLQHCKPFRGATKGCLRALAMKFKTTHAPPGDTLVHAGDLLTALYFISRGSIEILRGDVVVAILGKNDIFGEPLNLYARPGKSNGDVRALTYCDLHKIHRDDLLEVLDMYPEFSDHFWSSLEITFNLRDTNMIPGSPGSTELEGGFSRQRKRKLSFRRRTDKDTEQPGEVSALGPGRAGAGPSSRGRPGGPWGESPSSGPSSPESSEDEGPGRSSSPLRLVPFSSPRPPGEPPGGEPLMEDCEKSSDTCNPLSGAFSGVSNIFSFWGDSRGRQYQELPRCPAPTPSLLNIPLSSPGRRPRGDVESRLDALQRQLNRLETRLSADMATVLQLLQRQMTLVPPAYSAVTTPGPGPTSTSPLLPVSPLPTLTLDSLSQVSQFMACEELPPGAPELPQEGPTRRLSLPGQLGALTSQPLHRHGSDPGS

Compound | hERG inhibition rate (%) ([1]; concentration 3 μmol/L) | hERG inhibition rate (%) ([1]; concentration 30 μmol/L) | PDHa activity (% PDHt activity) (tissue PDH activity; [2]) | PDHa activity (% PDHt activity) (tissue PDH activity; [3]) | PDHa activity (% PDHt activity) (tissue PDH activity; [4]) | PDHa activity (% PDHt activity) (tissue PDH activity; [5])
CC(C)(O)COc1cc(-c2cnn(CCO)c2)c2c(c1)[C@@](O)(C(F)(F)F)c1ccccc1-2 [compound (C), (9R)-4-[1-(2-Hydroxyethyl)-1H-pyrazol-4-yl]-2-(2-hydroxy-2-methylpropoxy)-9-(trifluoromethyl)-9H-fluoren-9-ol] | 11.5 | 69.0 | 53 ± 4 | 28 ± 7 | 44 ± 5 | 13 ± 3
CC(C)(C(N)=O)n1cc(-c2cc(F)cc3c2-c2ccccc2[C@]3(O)C(F)(F)F)cn1 [compound (D), 2-{4-[(9R)-2-Fluoro-9-hydroxy-9-(trifluoromethyl)-9H-fluoren-4-yl]-1H-pyrazol-1-yl}-2-methylpropanamide] | 9.4 | 67.5 | 43 ± 7 | 24 ± 3 | 41 ± 15 | 20 ± 1
